Data as given in patent US20240139290A1, “METHODS OF TREATING A CARDIOVASCULAR ISCHEMIC EVENT” (Radius Health, Inc., priority 2021, published 2024).
“Also recorded” adds a separate entry of the source.

Legend:
[1] = Obaidi et al. 2010; cited from earlier work
[2] = system: ERK; test: Immunoblot of phospho-ERK in HL-1 cardiomyocytes (normoxia or simulated ischemia + 10 min reoxygenation); format: cell-based, murine; conditions: for phospho-ERK expression with co-administration of PD98059: 5 μM PD98059, control, abaloparatide- and PTHrP-treated groups
Method: (§1) At 24 h after the onset of treatment, cells underwent 2 h of SI+10 min reoxygenation, while additional time- and treatment-matched normoxic cultures served as controls (n=3 independent replicates per group). At 10 min post-reoxygenation, cells were harvested and lysed in RIPA buffer containing 2 protease and phosphatase inhibitors. The lysates were centrifuged at 14,000×g for 15 min, and the resultant supernatant was collected and probed for the expression of ERK (total and phosphorylated: antibodies from Cell Signaling Technology Inc., Danvers, MA, USA), PI3 kinase/Akt (total and phosphorylated: Cell Signaling Technology Inc., Danvers, MA, USA) and GAPDH (Sigma Aldrich Inc., St. Louis, MO, USA) using standard methods Immunoreactive bands were identified by incubation with horseradish peroxidase (HRP)-conjugated secondary antibody, visualized using x-ray film, and quantified using the NIH ImageJ software. […] At 24 h after the onset of treatment, cells underwent either 2 h of SI+24 h reoxygenation or a time-matched period of normoxia (n=2 independent replicates per group). At 24 h following relief of SI, cell viability was quantified using the MTT assay as described in Example 1.
HL-1 cardiomyocytes were treated as described in Example 5, but were harvested at 10 minutes post-reoxygenation, lysed, and probed for phospho- and total ERK expression as detailed in Example 5.

[3] = system: HL-1 cardiomyocytes; test: HL-1 cardiomyocyte viability (MTT assay) under normoxia or simulated ischemia-reperfusion; format: cell-based, murine
Method: HL-1 cardiomyocytes were grown to ˜80% confluence in 95% room air/5% CO2 at 37° C. in Claycomb medium supplemented with fetal bovine serum (10%), L-glutamine (2 mM), norepinephrine (0.1 mM), penicillin (100 U/mL) and streptomycin (100 μg/mL). The cardiomyocytes were then incubated for 24 hours with abaloparatide (0.1 nM, 1.0 nM, 10 nM, 100 nM) or vehicle control. At 24 hours after the onset of incubation, the cells were subjected to 2 hours of simulated ischemia (achieved by depletion of oxygen and nutrients), followed by 24 hours of reoxygenation. During simulated ischemia, Claycomb medium containing drug/placebo was replaced with drug-free hypoxia buffer at pH 6.6 (composed of NaCl ([…]), KCl (8 mM), KH2PO4 (1.2 mM), 1.25 mM MgSO4 (1.25 mM), CaCl2 (1.2 mM), NaHCO3 (6.25 mM), HEPES (20 mM), glucose (5.5 mM), 2-deoxy-D-glucose (20 mM), sodium lactate (5 mM): all ingredients from Sigma Aldrich, St. Louis, MO, USA) and the culture plates were sealed in a hermetic chamber with GasPak EZ Gas Generating Sachets (BD Biosciences, San Jose, CA, USA). Reoxygenation was achieved by removing the plates from the sealed chamber and exchanging the hypoxia buffer with serum-free Claycomb medium. Additional time- and treatment-matched normoxic cultures served as controls (n=4 independent replicates per group). Cell viability was quantified using the 3-(4,5-dimethythiazol-2-yl)-2,5-diphenyl tetrazolium bromide (MTT) assay.
At 24 hours after the onset of incubation, the cells were subjected to 2 hours of simulated ischemia (achieved by depletion of oxygen and nutrients), followed by 24 hours of reoxygenation. Additional time- and treatment-matched normoxic cultures served as controls. Cell viability was quantified using the 3-(4,5-dimethythiazol-2-yl)-2,5-diphenyl tetrazolium bromide (MTT) assay.
as §1
Twenty-four hours after the onset of treatment, cells underwent 2 hours of simulated ischemia followed by 24 hours of reoxygenation. Additional time- and treatment-matched normoxic cultures served as controls. Cell viability was quantified using the MTT assay.

[4] = human, in vivo, sc; cited from earlier work
[5] = system: Akt; test: Immunoblot of phospho-Akt in HL-1 cardiomyocytes (normoxia or simulated ischemia + 10 min reoxygenation); format: cell-based, murine; conditions: 2 h simulated ischemia + 10 min reoxygenation; 10 nM; vs vehicle; Example 3, FIG. 3B
Method: as §1

[6] = clinical studies; cited from earlier work
[7] = system: HL-1 cardiomyocytes; conditions: doxorubicin 2.5 μM for 24 hours; previously shown; cited from earlier work
[8] = simulated ischemia + 10 min reoxygenation, Example 6, FIG. 6B

abaloparatide
anabolic activity [1]: potent anabolic activity
bone resorption [1]: decreased bone resorption
calcium-mobilizing potential [1]: less calcium-mobilizing potential
expression of phospho-ERK (normalized to total ERK) ([2]; 2 h simulated ischemia + 10 min reoxygenation, 10 nM, vs vehicle, Example 3, FIG. 3C): augmented expression of phospho-ERK
expression of phospho-ERK vs vehicle-controls ([2]; simulated ischemia + 10 min reoxygenation, 10 nM, Example 6, FIG. 6B): augmented expression phospho-ERK
phospho-ERK expression with co-administration of PD98059 [2, 8]: attenuated
HL-1 cell viability vs vehicle-controls ([3]; 2 h simulated ischemia + 24 h reoxygenation, 10 nM, Example 5, FIG. 5B): viability was better maintained
HL-1 cell viability vs vehicle-controls ([3]; 2 h simulated ischemia + 24 h reoxygenation, 10 and 100 nM, Example 4, FIG. 4B): viability was better-maintained
HL-1 cell viability vs vehicle control ([3]; 2 h simulated ischemia + 24 h reoxygenation, abaloparatide 0.1-100 nM, 24 h pre-incubation, Example 1, FIG. 1B): viability was better-maintained
efficacy of abaloparatide relative to PTHrP(1-36) ([3]; in vitro model of ischemia-reperfusion injury, summary statement): slightly but significantly greater than that of PTHrP(1-36)
viability of HL-1 cardiomyocyte cells ([3]; in vitro model of lethal ischemia-reperfusion injury, summary statement): enhancement in viability
HL-1 cell viability ([3]; normoxic conditions, abaloparatide 0.1-100 nM, 24 h incubation, Example 1, FIG. 1A): no effect on HL-1 cell viability
protective effect on viability with co-administration of PD98059 ([3]; simulated ischemia-reperfusion, 10 nM peptide + 5 μM PD98059, Example 5, FIG. 5B): attenuated by co-administration of PD98059; also recorded: attenuated the protective effect
viability with 10 nM abaloparatide compared with other groups ([3]; simulated ischemia-reperfusion, p<0.05 between groups, Example 4, FIG. 4B): greater than that achieved with 100 nM abaloparatide and 10 nM PTHrP(1-36)
concentration with greatest efficacy on viability ([3]; simulated ischemia-reperfusion, tested 0.1, 1.0, 10, 100 nM, Example 1, FIG. 1B): 10 nM
HL-1 cardiomyocyte death caused by simulated ischemia-reperfusion ([3]; summary statement on Examples 1-3): attenuated HL-1 cardiomyocyte death
heart rate [4]: modest and transient increases in heart rate
heart rate relative to placebo [4]: transient increases in heart rate
incidence of palpitations relative to placebo [4]: higher incidences of palpitations
supine blood pressure [4]: decreases in supine blood pressure
expression of phospho-Akt (normalized to GAPDH) [5]: better preservation of phospho-Akt

CC[C@H](C)[C@H](NC(=O)[C@H](CCC(=O)O)NC(=O)[C@H](CO)NC(=O)[C@@H](NC(=O)[C@@H](N)CO)C(C)C)C(=O)N[C@@H](CCC(N)=O)C(=O)N[C@@H](CC(C)C)C(=O)N[C@@H](CCSC)C(=O)N[C@@H](Cc1cnc[nH]1)C(=O)N[C@@H](CC(N)=O)C(=O)N[C@@H](CC(C)C)C(=O)NCC(=O)N[C@@H](CCCCN)C(=O)N[C@@H](Cc1cnc[nH]1)C(=O)N[C@@H](CC(C)C)C(=O)N[C@@H](CC(N)=O)C(=O)N[C@@H](CO)C(=O)N[C@@H](CCSC)C(=O)N[C@@H](CCC(=O)O)C(=O)N[C@@H](CCCN=C(N)N)C(=O)N[C@H](C(=O)N[C@@H](CCC(=O)O)C(=O)N[C@@H](Cc1c[nH]c2ccccc12)C(=O)N[C@@H](CC(C)C)C(=O)N[C@@H](CCCN=C(N)N)C(=O)N[C@@H](CCCCN)C(=O)N[C@@H](CCCCN)C(=O)N[C@@H](CC(C)C)C(=O)N[C@@H](CCC(N)=O)C(=O)N[C@@H](CC(=O)O)C(=O)N[C@H](C(=O)N[C@@H](Cc1cnc[nH]1)C(=O)N[C@@H](CC(N)=O)C(=O)N[C@@H](Cc1ccccc1)C(=O)O)C(C)C)C(C)C [teriparatide]
orthostatic hypotension [6]: transient episodes of symptomatic orthostatic hypotension
palpitations [6]: palpitations
tachycardia [6]: tachycardia

COc1cccc(-c2cc(=O)c3ccccc3o2)c1N [PD98059]
phospho-ERK expression with co-administration of PD98059 [2, 8]: attenuated

COc1cccc2c1C(=O)c1c(O)c3c(c(O)c1C2=O)C[C@@](O)(C(=O)CO)C[C@@H]3O[C@H]1C[C@H](N)[C@H](O)[C@H](C)O1 [doxorubicin]
HL-1 cardiomyocytes killed [7]: ~50%
